Laboratory results taken from patent US20260235610A1, “METHOD OF PREDICTING SUCCESS OF A CANCER THERAPY” (IMMUSMOL SAS, priority 2023, published 2026).

Experiments:
TPH1 = target: T1, TPH1 (Homo sapiens, UniProt P17752); experiment: Tryptophan metabolites (Trp, 5HTP, 5HT and ratios) in QGP1-conditioned media as surrogate of TPH1 activity; format: cell-based; conditions: QGP1 cells cultured 48 hours; for effect on C-Media decrease in Trp level and concomitant increase of 5HTP, 5HT, 5HTP/Trp and 5HT/Trp ratios: Telotristat 1 μM, PEA 300 μM, versus C-Media alone
T1 construct: QGP1 neuroendocrine tumor cell line characterized by a high TPH1 expression and activity; endogenous in cells; host or cells: QGP-1 neuroendocrine tumor cell line
T1 sequence (P17752 1-444): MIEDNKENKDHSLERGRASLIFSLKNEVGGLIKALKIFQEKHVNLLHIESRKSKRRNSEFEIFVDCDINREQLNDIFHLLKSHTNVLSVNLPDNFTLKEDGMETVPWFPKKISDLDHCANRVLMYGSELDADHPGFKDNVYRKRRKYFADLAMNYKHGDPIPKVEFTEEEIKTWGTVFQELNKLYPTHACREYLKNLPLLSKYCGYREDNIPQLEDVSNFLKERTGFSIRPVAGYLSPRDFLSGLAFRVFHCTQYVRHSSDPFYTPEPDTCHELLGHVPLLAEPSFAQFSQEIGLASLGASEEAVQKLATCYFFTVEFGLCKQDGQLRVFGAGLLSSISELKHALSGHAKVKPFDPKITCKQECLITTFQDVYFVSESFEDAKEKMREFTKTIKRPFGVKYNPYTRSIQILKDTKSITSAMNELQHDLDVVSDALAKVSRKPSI
Procedure: The impact of TPH1^High conditioned culture media (C-Media) on immune cell activation was evaluated. QGP1 neuroendocrine tumor cell line characterized by a high TPH1 expression and activity was cultured over a 48-hour period in the presence and absence of Telotristat (TPH1 inhibitor) or Phenethylamine (PEA) alone and in the presence of Telotristat.
The media characteristics were as follows: • i) NC-Media • ii) C-Media • iii) C-Media+Telotristat (TPH1 inhibitor) • iv) C-Media+Phenethylamine (PEA) • v) C-Media+Telotristat (TPH1 inhibitor)+Phenethylamine (PEA)
(§1) The QGP-1 cell line was cultured in RPMI-1640 medium, supplemented with 10% (v/v) FCS and penicillin-streptomycin in a humidified incubator at 5% CO2 and 37° C. In order to prepare the conditioned media, cells were cultured in 6-well plates for 48 hours in the presence and absence of Telotristat (1 μM), a TPH1 inhibitor, and in the presence and absence of Phenethylamine (PEA; 300 μM), a TPH1 inducer (Zhai et al., 2023). QGP1-conditioned media (C-Media) were used to culture human PBMCs (Peripheral Blood Mononuclear Cells) originating from one healthy donor for a 72-hour period under anti-CD3 activation (0.5 μg/mL). As control, fresh cell culture media (Non-Conditioned Media (NC-Media) was used.
Each analytes-Tryptophan (Trp), 5-hydroxyTryptopan (5HTP) and Serotonin (5HT)-were measured individually and then used to calculate ratio, i.e. 5HTP/Trp and 5HT/Trp as representative surrogate of TPH1 activity.
Tryptophan was quantified using an immunoassay (#BA-E-2700, ImmuSmol, Bordeaux, FRANCE). Briefly, in order to remove proteins, 20 μL of sample were precipitated, vortexed and then centrifuged for 15 minutes (3,000 g, at 4° C.). Twenty five microliters of supernatant were then used for derivatization for a 2 hour period at room temperature. Once the derivatization was achieved, 25 μL of the solution was applied on a 96-microtiters prior addition of 50 μL of anti-Tryptophan antiserum. […]
5-HdroxyTryptophan was quantified using an immunoassay. […]
Serotonin was quantified using an immunoassay (#BA-E-5900R, ImmuSmol, Bordeaux, FRANCE). […]

human PBMCs = experiment: anti-CD3 mediated PBMCs activation in QGP1-conditioned media, IFN-γ measurement by HTRF; format: cell-based; conditions: anti-CD3 0.5 μg/mL; for effect on C-Media induced decrease in anti-CD3 mediated PBMCs activation (IFN-γ): PBMCs of one healthy donor, 72 hours, conditioned media prepared with Telotristat 1 μM or PEA 300 μM
Procedure: Culture supernatant was then collected and applied on peripheral blood mononuclear cells (PBMCs) cultivated under anti-CD3-based activation for 3-days.
as §1
At the end of PBMCs treatment period as described above, cell culture supernatants were collected and subjected to IFN-γ measurement by mean of HTRF (Homogeneous Time Resolved Technology, Perkin Elmer) which serves as a surrogate of immune cell activation (FIG. 12). HTRF is a standard technique well-known in the art and therefore perfectly within the routine of the skilled person.

SMILES | effect on C-Media decrease in Trp level and concomitant increase of 5HTP, 5HT, 5HTP/Trp and 5HT/Trp ratios (TPH1) | effect on C-Media induced decrease in anti-CD3 mediated PBMCs activation (IFN-γ) (human PBMCs) | effect on PEA-induced TPH1 activity (TPH1; Telotristat 1 μM plus PEA 300 μM) | effect on the more limited immune cell activation associated with PEA-induced TPH1 activation (IFN-γ) (human PBMCs; PBMCs 72 hours, conditioned media prepared with Telotristat 1 μM plus PEA 300 μM)
NCCc1ccccc1 [PEA, Phenethylamine] | further increased | increased | – | –
Cc1ccn(-c2cc(Cl)ccc2[C@@H](Oc2cc(-c3ccc(C[C@H](N)C(=O)O)cc3)nc(N)n2)C(F)(F)F)n1 [Telotristat] | largely limited | limited | able to limit PEA-induced TPH1 activity | alleviated
